Measurements: publication PMC548150, “Reversal of a full-length mutant huntingtin neuronal cell phenotype by chemical inhibitors of polyglutamine-mediated aggregation” (BMC Neuroscience, 2005)
Where “and” joins values, the source holds several entries; their conditions need not be identical. Equal entries are not always repeated. Entries after “also recorded” stand apart in the source; their conditions may differ. Where two headings read alike, the source gives them in different places.

Key:
[1] = system: PC12 cells expressing huntingtin exon 1 encoding 103 glutamines; design: method as in PMID 15262266; settings: cited from earlier work
[2] = system: HEK 293T cells expressing androgen receptor with 112 glutamines; settings: cited from earlier work
[3] = system: ST111/111 striatal cells (Hdh^Q111/Q111, full-length mutant huntingtin); experiment: striatal cell line assay: huntingtin localization phenotype (AP229 immunostaining, confocal); type: cell-based, mouse; settings: for Percentage of ST111/111 cells showing cytoplasmic/nuclear huntingtin localization comparable to wild-type ST7/7 cells: 30 min at 33°C, mean ± SD of 5–10 fields
Description: To test the hypothesis that compounds, which inhibit the aggregation-promoting property of amino-terminal mutant huntingtin will also rescue effects of full-length mutant huntingtin, we tested the top six inhibitors in a striatal cell-based assay. Mutant Hdh^Q111/Q111 and wild-type Hdh^Q7/Q7 striatal cell lines, […], which have been prepared by transformation with a tsSV40 vector, can be propagated in culture and used for cytological and biochemical comparisons. These cells express full-length mutant or wild-type huntingtin, respectively, with no evidence of truncated amino-terminal fragments, no formation of polyglutamine aggregates and no cell death-producing toxicity. However, like the striatal neurons of Hdh^Q111/Q111 knock-in mice, the ST111/111 cells show nuclear staining of huntingtin when tested with an amino-terminal huntingtin antibody that is sensitive to the conformation of the full-length protein (Figure 5A). By contrast, ST7/7 cells expressing wild type huntingtin show both nuclear and cytoplasmic immunostaining with the same huntingtin antibody (Figure 5A).
Conditionally immortalized wild-type Hdh^Q7/Q7 striatal neuronal progenitor cells (ST7/7) expressing endogenous normal huntingtin, and homozygous Hdh^Q111/Q111 striatal neuronal progenitor cells (ST111/111), expressing endogenous mutant huntingtin with 111-glutamines, have been described previously. The striatal cell lines were grown at 33°C in Dulbecco's modified Eagle's medium (DMEM) supplemented with 10 % fetal bovine serum (FBS), 1% nonessential aminoacids, 2 mM L-glutamine and 400 μg/ml G418 (Geneticin (GIBCO-BRL, Life Technologies, Gaithersburg, MD).
(§1) In the immunofluorescence and confocal analysis experiment, wild-type ST7/7 and homozygous mutant ST111/111 cells, grown to confluence on glass coverslips, were treated with 6 different drugs at four different concentrations (0.5, 5, 10 or 50 μM) for 30 min at 33°C. After the treatment the drugs were removed and the cells washed twice in PBS. The cells were then fixed by incubation in 4% formaldehyde for 15 min, permeabilized by 0.1% Triton X-100 for 5 min and incubated for 30 min with blocking solution (1% bovine albumin in PBS). Coverslips were then incubated in primary antibody (AP229 1:500 dilution) for 2 h at room temperature and washed three times in PBS before a further 1 h in blocking solution containing the secondary antibody (goat anti-rabbit Cy3, Jackson ImmunoResearch, West Grove, PA. USA). After three washes in PBS coverslips were mounted onto glass slides with Vectashield (Burlingame, CA. USA) and the images were analyzed with a laser confocal microscope (Bio-Rad, Hercules, CA. USA) using 20 × objective. Cell death was quantified by scoring the percentage of cells with apoptotic nuclear morphology, i.e. condensed or fragmented nuclei, under the confocal microscope. In each case five to ten randomly selected fields were counted, comprising at least 200 cells, and each experiment was repeated 3 times.

[4] = target: T1, Q58-htn 1–171 amino terminal fragment (GST-Q58-Htn cleaved by thrombin) (Homo sapiens, UniProt P42858, INS38QQQQQQQQQQQQQQQQQQQQQQQQQQQQQQQQQQQQQ); experiment: in vitro aggregation of amino-terminal mutant huntingtin fragment (filter retardation dot blot); type: biochemical
T1 construct: the amino terminal fragment 1–171 of mutant huntingtin; GST (N, cleaved yes); made in house; host or cells: E. coli BL21 (pGEX-2TK vector)
T1 sequence (P42858 with tags, fused parts or gaps with the stated changes limits assumed): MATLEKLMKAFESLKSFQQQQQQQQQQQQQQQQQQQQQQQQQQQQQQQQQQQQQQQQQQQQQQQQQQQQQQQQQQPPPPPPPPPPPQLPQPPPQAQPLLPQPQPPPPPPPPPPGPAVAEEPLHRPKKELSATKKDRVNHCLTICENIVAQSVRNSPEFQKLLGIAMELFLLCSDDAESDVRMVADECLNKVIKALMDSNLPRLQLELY
Procedure: In our primary screen (Figure 1A), GST-Q58-Htn (20 μg/ml) was mixed with thrombin (0.5 unit/μg GST-Q58-Htn) and immediately dispensed into a 96-well PCR plate containing compounds diluted to a final concentration of 100 μM. Incubation was continued for 24 hours at room temperature to allow aggregate formation. The aggregation was stopped by 2% SDS/10 mM 2-mercaptoethanol followed by boiling for 5 minutes. The mixture was filtered through a cellulose acetate membrane by using a 96-well ELIFA dot blot apparatus. The aggregates retained on the membrane were detected and quantified by immunoblotting and subsequent image analysis. Congo Red, a known huntingtin aggregation inhibitor, was used as the positive control.
A recombinant pGEX-2TK expression vector with cDNA fragment encoding amino terminal 171 amino acids of human huntingtin with a polyglutamine tract of 58 was used to prepare the GST-Q58-htn fusion protein. The GST-Q58-htn was overexpressed in BL21 cells and purified by affinity chromatography over glutathione-sepharose 4B beads (Amersham Pharmacia Biotech). The purified proteins were stored at concentration of 2.0 mg/ml at -80°C.
For primary screening of the chemical library, 1 μl of 4.0 mM small compound stock, diluted from the original plates, was placed in wells of 96-well plates. The fusion protein, GST-Q58-Htn was mixed with thrombin (0.5 unit/1 μg protein) at a concentration of 20 μg/ml in a buffer of 50 mM Tris-HCl, pH 8.0, 100 mM NaCl, 2.5 mM CaCl2, 1.0 mM EDTA. The mixture was immediately distributed into the 96-well plates containing diluted compounds at 40 μl/well and mixed well. The final concentration of the small compounds was 100 μM. After 24 hours incubation at room temperature, the reaction was stopped by adding 10 μl of 10% SDS/50 mM 2-mercaptoethanol to each well followed by boiling in a PCR machine for 5 minutes. The mixture from each well was filtered through a cellulose acetate membrane ((0.2 μm, GE Osmonics labstore, Minnetonka MN) by using a 96-well ELIFA (Pierce Biotech). The aggregates retained on the membrane were detected by a specific anti-huntingtin antibody, HP1 (diluted 1:1000), followed by incubation with peroxidase conjugated anti-rabbit antibody (diluted 1:10,000, Sigma). Signals from SDS insoluble aggregates were scanned and quantified by using ImageMaster Totalab image analysis software (Amersham Pharmacia Biotech). In the secondary screening, all steps were the same except the final concentration of compound in each well was reduced to 10 μM and the GST-Q58-Htn/thrombin mixture was preincubated for 45-minutes at room temperature and clarified by centrifugation at 28,000 × g for 30 minutes before being added to the test wells. For IC50 determinations, the in vitro aggregation assay and signal quantification were performed as in the second screening but varying the final concentration of input drug. The data for each inhibitor were obtained from at least two independent experiments in which every sample was analyzed in triplicate with Prism 3.0 software (Graphpad Software, Inc., San Diego, CA).

[5] = system: ST111/111 striatal cells; type: cell-based; settings: 30 min at 33°C
Procedure: as §1, with “After” for “In the immunofluorescence and confocal analysis experiment, wild-type ST7/7 and homozygous mutant ST111/111 cells, grown to confluence on glass coverslips, were treated with 6 different drugs at four different concentrations (0.5, 5, 10 or 50 μM) for 30 min at 33°C. After”

## CC1=C(O)C(=O)C=C2C1=CC=C1[C@@]2(C)CC[C@@]2(C)[C@@H]3C[C@](C)(C(=O)O)CC[C@]3(C)CC[C@]12C [Celastrol]
[1]
  protection against polyglutamine toxicity: partially protective
[2]
  effect on caspase 3 activation: blocked caspase 3 activation
  toxicity in the HEK 293T assay: showed toxicity
[3]; 0.5 μM
  Percentage of ST111/111 cells showing cytoplasmic/nuclear huntingtin localization comparable to wild-type ST7/7 cells: 8.7 ± 8.7%
[3]; 5 μM
  Percentage of ST111/111 cells showing cytoplasmic/nuclear huntingtin localization comparable to wild-type ST7/7 cells: 69.2 ± 3.8%
[3]; 10 μM
  Percentage of ST111/111 cells showing cytoplasmic/nuclear huntingtin localization comparable to wild-type ST7/7 cells: 78.1 ± 3.5%
[3]; 0.5–50 μM tested
  reversal of the mutant huntingtin localization phenotype (in words): reversed the mutant phenotype in a dose-dependent manner; also recorded: effective
[4]
  IC50: < 6 µM and < 15 µM and 3.55 µM
[4]; at the maximum concentration of the dose response (0.01 μM to 500 μM)
  residual aggregate formed: approximately 20%
[5]; 5 μM
  percentage of dead cells: 1%
[5]; 10 μM
  percentage of dead cells: 4%
